Read-outs that look alike come from different tables or passages of the source. Non-standard residues stand in square brackets, D forms with d. Residues, ends and D or L forms follow the SMILES beside them. ξ: configuration not given here. ξY = NC(Cc1ccc(O)cc1)C(=O)O; Nva = CCC[CH](N)C(=O)O
Columns and labels:
[1] = system: BDC 8-1.1α1 anti-B:9-23 T cell hybridoma; assay: T cell stimulation assay, B:9-23 activated TCR 8-1.1α1; assay type: cell-based; details: Mus musculus, read-out: IC50 for anti-B:9-23 TCRs 8-1.1α1
[2] = system: BDC 12-4.1 anti-B:9-23 T cell hybridoma; assay: T cell stimulation assay, B:9-23 activated TCR BDC 12-4.1; assay type: cell-based; details: Mus musculus, read-out: IC50 for anti-B:9-23 TCRs BDC 12-4.1
[3] = system: human T cell receptor recognizing insulin B:9-23 presented by human DQ8; assay: Inhibition of human T cell receptor recognizing insulin B:9-23 presented by human DQ8; assay type: cell-based; details: for Inhibition of human T cell receptor recognition of insulin B:9-23 presented by human DQ8: screen of DQ8 pocket 1 and pocket 9 compounds; for Concentration at which inhibition is exhibited: DQ8 pocket 1 and pocket 9 compounds studied in detail
Source text: Using a TCR sequence obtained from a T cell line generated from the peripheral blood of a diabetic individual with DQ8 molecule, a TCR was identified that is DQ8 restricted and responds to the insulin B:9-23 peptide.
Molecules predicted to occupy pockets 1 and 9 of the human DQ8 peptide binding groove were identified using in silico molecular docking program. The top scoring compounds for each pocket were screened for their ability to inhibit anti-B:9-23 T cell responses. FIGS. 9A and 9B represent the results of the T cell stimulation assay for compounds occupying pocket 1 and pocket 9 of the human DQ8 peptide binding groove, respectively.

[4] = system: CD3-stimulated T cell hybridomas; assay: CD3-stimulated T cell hybridomas (specificity control); assay type: cell-based
Source text: The small molecules p1:4, p1:12 and p1:16 were studied in additional detail.

[5] = target: DQ8 (Homo sapiens, UniProt P01909+P01920, A209T/A45G/C70Q/D89A/DUP78-78/E183D/E77G/F237L/G63E/H199R/I129T/K197E/L178F/L74F/L98V/Q57E/Q76R/S185I/S97I/T217I/T49S/V73L/Y58L); assay: Competitive binding assay B:9-23 to DQ8
[6] = system: BDC 2.5 T cell hybridoma; assay: Chromogranin peptide mimotope presentation by I-A^g^7 to BDC 2.5 T cell hybridoma; assay type: cell-based, mouse; details: specificity test
[7] = system: 5KC cells transduced with a 4-8 TCR; assay: Endogenous insulin presentation: whole insulin with I-A^g^7 splenocytes and 4-8 TCR transduced 5KC cells; assay type: cell-based, mouse; details: whole insulin with I-A^g^7 containing splenocytes
Method: The ability of the small molecules to block endogenous insulin presentation was tested. Incubation of whole insulin with I-A^g^7 containing splenocytes activates 5KC cells (T cell hybridoma lacking endogenous TCRα and β chains) transduced with a 4-8 TCR. […] To document direct effects of these small molecules on inhibiting peptide binding to I-A^g^7, an I-A^g^7 protein construct was expressed in baculovirus with a linked peptide. The flexible linker contained a thrombin cleavage site, allowing for thrombin cleavage of the linker and release of the peptide.

[8] = >100 uM means some effect at 100 uM but not 50% inhibition, < means lower concentrations not used

Compound | IC50 [5] | Competitive Binding Assay B:9-23 to DQ8 (IC50) [5, 8] | also measured
Nc1nc(N)c2nn[nH]c2n1 | – | – | IC50 ([1]; B:9-23 activated TCR): 25.5 µM; IC50 ([2]; B:9-23 activated TCR): 24 µM
C1CN2CN1CN1CCN(C1)C2 | – | – | IC50 ([1]; B:9-23 activated TCR): 48.8 µM; IC50 ([2]; B:9-23 activated TCR): 2.8 µM
NC1(N)Sc2nc3ccccc3nc2S1 | – | – | IC50 ([1]; B:9-23 activated TCR): 70.4 µM; IC50 ([2]; B:9-23 activated TCR): 14.8 µM
O=S1(=O)N2CN3CCN(C2)N1C3 | – | – | IC50 [1]: 28.4 µM; IC50 [2]: 0.5 µM
5-((2,5-dichloro-4-(hydroxy(oxido)amino)phenyl)diazenyl)-2-imino-4-methyl-2,3-dihydro-1,3-thiazole [p1:21] | – | – | Inhibition of human T cell receptor recognition of insulin B:9-23 presented by human DQ8 [3]: able to inhibit
O=Nc1c(S(=O)(=O)O)cc2cc(S(=O)(=O)O)cc(O)c2c1O [p1:4, 4,5-dihydroxy-3-nitroso-2,7-naphthalenedisulfonic acid] | – | – | Concentration at which inhibition is exhibited [3]: nanomolar; Inhibition of human T cell receptor recognition of insulin B:9-23 presented by human DQ8 [3]: able to inhibit; Response of CD3-stimulated T cell hybridomas [4]: did not change response
NC(=O)c1cc(Br)cc(C2CCCCC2)c1O [p1:12, 5-bromo-3-cyclohexyl-2-hydroxybenzamide] | – | – | Concentration at which inhibition is exhibited [3]: nanomolar; Inhibition of human T cell receptor recognition of insulin B:9-23 presented by human DQ8 [3]: able to inhibit; Response of CD3-stimulated T cell hybridomas [4]: did not change response
O=C(O)COc1ccc(I)cc1I [p1:16, (2,4-diiodophenoxy)acetic acid] | – | – | Concentration at which inhibition is exhibited [3]: nanomolar; Inhibition of human T cell receptor recognition of insulin B:9-23 presented by human DQ8 [3]: able to inhibit; Response of CD3-stimulated T cell hybridomas [4]: did not change response
COC(=O)COc1ccc(Cl)cc1C(=O)O [p1:18, 5-chloro-2-(2-methoxy-2-oxoethoxy) benzoic acid] | – | – | Inhibition of human T cell receptor recognition of insulin B:9-23 presented by human DQ8 [3]: able to inhibit
COc1ccc2c(n1)Sc1c(N)nc(N)nc1N2 [p1:22, 7-methoxy-10H-pyrido[2,3-b]pyrimido[4,5-e][1,4]thiazine-2,4-diamine] | – | – | Inhibition of human T cell receptor recognition of insulin B:9-23 presented by human DQ8 [3]: able to inhibit
Nc1nc(O)c2nc(S)c(C(=O)O)nc2n1 [p1:25, 2-amino-4-hydroxy-6-mercapto-7-pteridine carboxylic acid] | – | – | Inhibition of human T cell receptor recognition of insulin B:9-23 presented by human DQ8 [3]: able to inhibit
N=C(N)NC(=N)Nc1ccccc1Cl [p4:1] | > 100 µM | – | –
[H]/N=C(\N/C(N)=N/[H])Nc1ccc([N+](=O)[O-])cc1 [p4:2] | – | No inhibition | –
[H]/N=C(\NCC[N+](C)(C)C)NN([O-])O [p4:3] | – | No inhibition | –
[H]/N=C(/N/N=C/c1ccncc1)NN(O)O [p4:4] | – | – | Competitive Binding Assay B:9-23 to DQ8 (IC50) [5]: No inhibition
CC1CNC2C(=O)NC(=O)NC2N1 (stereo not shown) [p4:5] | > 100 µM | – | –
CN(Cc1ccccc1)Cn1ccnc1 [p4:6] | – | No inhibition | –
[H]/N=C(\NCCN(C)C)NN(O)O [p4:7] | < 100 µM | – | –
[H]/N=C(\NCCOC(C)=O)NN(O)O [p4:8] | – | No inhibition | –
NC(=O)N/N=C/C1CNCCN1 (stereo not shown) [p4:9] | – | No inhibition | –
[H]/N=C(/Nc1ccc(Cl)cc1)NN(O)O [p4:12] | > 100 µM | – | –

Compound | IC50 [5] | Competitive Binding Assay B:9-23 to DQ8 (IC50) [5, 8] | also measured
c1cc[n+](CC[n+]2ccccc2)cc1 [p4:13] | – | No inhibition | –
NC(Cn1ccc(=O)c(O)c1)C(=O)O (stereo not shown) [p4:14] | – | No inhibition | –
Clc1ccc(Cl)c(OCC2=NCCN2)c1 [p4:15] | > 100 µM | – | –
[H]/N=C(\NN(O)O)NS(=O)(=O)c1ccccc1 [p4:17] | > 100 µM | – | –
[H]/N=C(\N)NCCC(N)C(=O)O (stereo not shown) [p4:18] | – | No inhibition | –
[H]/N=C(\NCCCCl)NN(O)O [p4:19] | > 100 µM | – | –
CCCC(N)C(=O)NC(C(=O)O)C(C)C (stereo not shown) [p4:20] (H-[Nva]-Val-OH; configuration not given here) | > 100 µM | – | –
c1ccc(CCN2CCCCCCCC2)nc1 [p4:21] | – | No inhibition | –
Oc1ncnc2[nH]c(C(O)c3ccccc3)nc12 (stereo not shown) [p4:22] | > 100 µM | – | –
NC(=O)N/N=C/Cn1cc([N+](=O)[O-])c(=O)[nH]c1=O [p4:23] | > 100 µM | – | –
[H]/N=C(\NCCC#N)NN(O)O [p4:24] | – | No inhibition | –
[H]/N=C(\NCCS(C)(=O)=O)NN(O)O [p4:26] | – | No inhibition | –
[H]/N=C(/NCc1ccccc1)NN(O)O [p4:28] | > 100 µM | – | –
CCC(N)C(O)c1ccccc1 (stereo not shown) [p4:30] | – | – | Competitive Binding Assay B:9-23 to DQ8 (IC50) [5]: No inhibition
[H]/N=C(\NCCOC)NN(O)O [p4:31] | > 100 µM | – | –
CC1C(c2ccccc2)OCN1C (stereo not shown) [p4:32] | < 100 µM | – | –
OC1CN(Cc2ccccc2)CC1O (stereo not shown) [p4:33] | – | No inhibition | –
NC(CCCC(N)C(=O)O)C(=O)O (stereo not shown) [p4:34] | > 100 µM | – | –
CCCCN(C)C12CN3CN(CN(C3)C1)C2 [p4:35] | > 100 µM | – | –
C[N+]1(C/C=C/Cl)CN2CNCN(C2)C1 (stereo not shown) [p6:2] | – | No inhibition | –
NC1CC2NC3CCCCC3NC2CC1N (stereo not shown) [p6:7] | – | No inhibition | –

Compound | IC50 [5] | Competitive Binding Assay B:9-23 to DQ8 (IC50) [5, 8] | also measured
C[N+]1(C/C=C/CCl)CN2CNCN(C2)C1 (stereo not shown) [p6:8] | – | No inhibition | –
CN1C(=O)C(N)C(N)N(C)C1=O (stereo not shown) [p6:16] | – | No inhibition | –
O=[PH](O)C(O)c1ccccc1 (stereo not shown) [p6:17] | > 100 µM | – | Inhibition of chromogranin presentation to the BDC 2.5 hybridoma [6]: no inhibition
CN(C)C(Cl)(N(C)C)C(Cl)(N(C)C)N(C)C [p6:18] | > 100 µM | – | IC50 for blocking T cell stimulation from endogenously processed insulin [7]: low nanomolar
NCc1c(Cl)c(Cl)c(Cl)c(CN)c1Cl [p6:19] | > 100 µM | – | –
COC(=O)C(C=C(Cl)Cl)N1CCNCC1 (stereo not shown) [p6:23] | > 100 µM | – | –
NCC(=O)NC(Cc1ccc(O)cc1)C(=O)O (stereo not shown) [p6:24] (H-Gly-[ξY]-OH) | > 100 µM | – | –
C1CCCNCCNCCNCC1 [p6:27] | – | No inhibition | –
CC1(CO)COC(=O)C(C)(C2(C)NC(C)(CO)COC2=O)N1 (stereo not shown) [p6:28] | – | No inhibition | –
NC1(COS(=O)(=O)O)CCN1 (stereo not shown) [p6:30] | – | No inhibition | –
O=C1CN(C2CCCCC2N2CC(=O)NC(=O)C2)CC(=O)N1 (stereo not shown) [p6:31] | – | No inhibition | –
C=CC(OC(=O)CC)(c1ccccc1)C1CCNCC1 (stereo not shown) [p6:32] | – | – | Competitive Binding Assay B:9-23 to DQ8 (IC50) [5]: No inhibition
N=C(N)c1ccc(/C=C/c2ccc(C(=N)N)cc2)cc1 [p6:33] | – | No inhibition | –
CC(=O)N1C(=O)C2(NCCCN2)c2ccccc21 [p6:34] | < 100 µM | – | –
O=P(O)(O)CCCP(=O)(O)O [p9:1, 3-phosphonopropylphosphonic acid] | – | – | Inhibition of human T cell receptor recognition of insulin B:9-23 presented by human DQ8 [3]: able to inhibit
O=C(O)COC1C=CC(=O)N(CC(=O)O)N1 (stereo not shown) [p9:5, 3-(carboxymethoxy)-6-oxo-3,6-dihydro-1(2H)-pyridazinyl acetic acid] | – | – | Concentration at which inhibition is exhibited [3]: nanomolar; Inhibition of human T cell receptor recognition of insulin B:9-23 presented by human DQ8 [3]: able to inhibit
O=S(=O)(O)C(O)CC(O)S(=O)(=O)O (stereo not shown) [p9:10, 1,3-dihydroxy-1,3-propanedisulfonic acid] | – | – | Inhibition of human T cell receptor recognition of insulin B:9-23 presented by human DQ8 [3]: able to inhibit
O=C(O)C(S)CC(S)C(=O)O (stereo not shown) [p9:17, 3-deoxy-2,4-dithiopentaric acid] | – | – | Inhibition of human T cell receptor recognition of insulin B:9-23 presented by human DQ8 [3]: able to inhibit
O=S(=O)(O)CCc1nnn[nH]1 [p9:23, 2-(1H-tetraazol-5-yl)ethanesulfonic acid] | – | – | Concentration at which inhibition is exhibited [3]: nanomolar; Inhibition of human T cell receptor recognition of insulin B:9-23 presented by human DQ8 [3]: able to inhibit
CC=C1C(C(=O)O)C1C(=O)O (stereo not shown) [p9:35, 3-ethylidene-1,2-cyclopropanedicarboxylic acid] | – | – | Inhibition of human T cell receptor recognition of insulin B:9-23 presented by human DQ8 [3]: able to inhibit
